Source: ChEMBL document CHEMBL5291721, “A preclinical secondary pharmacology resource illuminates target-adverse drug reaction associations of marketed drugs” (Nat Commun, 2023)

How the values were obtained:
[1] = biological target: Neuronal acetylcholine receptor subunit alpha-4 (Homo sapiens, UniProt P43681)
[2] = biological target: Cannabinoid receptor 1 (Homo sapiens, UniProt P21554); assay type: functional, cell-based
[3] = biological target: 5-hydroxytryptamine receptor 2B (Homo sapiens, UniProt P41595); assay type: functional, cell-based
[4] = biological target: T1, 5-hydroxytryptamine receptor 2C (Homo sapiens, UniProt P28335)
T1 sequence (P28335 whole entry): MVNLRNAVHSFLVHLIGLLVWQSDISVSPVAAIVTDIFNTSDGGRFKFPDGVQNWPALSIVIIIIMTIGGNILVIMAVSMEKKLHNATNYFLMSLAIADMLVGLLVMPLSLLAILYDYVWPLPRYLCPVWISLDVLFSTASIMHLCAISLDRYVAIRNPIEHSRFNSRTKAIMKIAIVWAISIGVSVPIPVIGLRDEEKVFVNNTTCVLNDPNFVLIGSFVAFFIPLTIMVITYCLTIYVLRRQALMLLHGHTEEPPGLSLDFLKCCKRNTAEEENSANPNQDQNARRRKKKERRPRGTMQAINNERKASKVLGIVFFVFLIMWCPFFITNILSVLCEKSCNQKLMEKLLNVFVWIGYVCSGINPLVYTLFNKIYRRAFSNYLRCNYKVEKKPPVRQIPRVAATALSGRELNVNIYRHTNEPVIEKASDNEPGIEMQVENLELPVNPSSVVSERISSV

[5] = biological target: Melanocortin receptor 3 (Homo sapiens, UniProt P41968)
[6] = biological target: Motilin receptor (Homo sapiens, UniProt O43193)
[7] = biological target: Kappa-type opioid receptor (Homo sapiens, UniProt P41145)
[8] = biological target: T2, Progesterone receptor (Homo sapiens, UniProt P06401); assay type: functional
T2 sequence (P06401 whole entry): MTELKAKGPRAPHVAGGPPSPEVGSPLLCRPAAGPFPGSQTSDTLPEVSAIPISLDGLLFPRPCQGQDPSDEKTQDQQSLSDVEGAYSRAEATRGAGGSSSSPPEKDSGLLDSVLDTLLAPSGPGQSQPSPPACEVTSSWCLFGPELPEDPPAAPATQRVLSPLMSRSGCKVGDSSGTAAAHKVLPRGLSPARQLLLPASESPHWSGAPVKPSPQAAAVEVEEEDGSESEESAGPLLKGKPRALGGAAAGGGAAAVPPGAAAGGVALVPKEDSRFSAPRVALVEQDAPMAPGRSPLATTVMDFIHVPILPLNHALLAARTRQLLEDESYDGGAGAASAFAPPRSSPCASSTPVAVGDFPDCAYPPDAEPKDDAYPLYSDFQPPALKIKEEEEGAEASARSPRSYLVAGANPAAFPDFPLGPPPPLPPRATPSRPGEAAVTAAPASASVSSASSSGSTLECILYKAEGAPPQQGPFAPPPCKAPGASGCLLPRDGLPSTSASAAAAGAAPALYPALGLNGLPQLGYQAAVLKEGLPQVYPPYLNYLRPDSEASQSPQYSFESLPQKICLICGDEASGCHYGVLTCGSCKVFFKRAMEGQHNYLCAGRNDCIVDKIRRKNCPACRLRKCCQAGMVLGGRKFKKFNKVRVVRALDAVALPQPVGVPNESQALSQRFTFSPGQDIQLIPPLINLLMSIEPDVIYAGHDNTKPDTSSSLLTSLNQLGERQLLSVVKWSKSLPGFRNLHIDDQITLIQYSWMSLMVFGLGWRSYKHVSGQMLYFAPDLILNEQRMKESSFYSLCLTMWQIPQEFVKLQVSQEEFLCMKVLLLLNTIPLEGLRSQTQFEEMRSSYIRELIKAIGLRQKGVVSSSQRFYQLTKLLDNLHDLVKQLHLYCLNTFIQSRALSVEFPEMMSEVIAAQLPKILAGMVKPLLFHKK

[9] = biological target: T3, Alpha-2B adrenergic receptor (Homo sapiens, UniProt P18089)
T3 sequence (P18089 whole entry): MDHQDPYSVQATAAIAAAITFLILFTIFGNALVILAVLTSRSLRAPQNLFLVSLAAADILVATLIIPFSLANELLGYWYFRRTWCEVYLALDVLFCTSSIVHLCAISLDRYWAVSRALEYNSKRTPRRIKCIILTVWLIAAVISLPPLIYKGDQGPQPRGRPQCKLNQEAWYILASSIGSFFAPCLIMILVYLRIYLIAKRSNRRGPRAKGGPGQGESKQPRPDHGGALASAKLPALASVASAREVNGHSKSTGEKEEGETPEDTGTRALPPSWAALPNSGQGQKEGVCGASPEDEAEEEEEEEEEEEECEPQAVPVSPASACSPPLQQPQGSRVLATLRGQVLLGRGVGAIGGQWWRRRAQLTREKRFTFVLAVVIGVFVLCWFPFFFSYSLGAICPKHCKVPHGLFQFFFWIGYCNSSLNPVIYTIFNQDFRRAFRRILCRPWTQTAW

[10] = biological target: Histamine H1 receptor (Homo sapiens, UniProt P35367)
Further: assay procedure not described here.

Chain of Cannabinoid receptor 1 (P21554 whole entry): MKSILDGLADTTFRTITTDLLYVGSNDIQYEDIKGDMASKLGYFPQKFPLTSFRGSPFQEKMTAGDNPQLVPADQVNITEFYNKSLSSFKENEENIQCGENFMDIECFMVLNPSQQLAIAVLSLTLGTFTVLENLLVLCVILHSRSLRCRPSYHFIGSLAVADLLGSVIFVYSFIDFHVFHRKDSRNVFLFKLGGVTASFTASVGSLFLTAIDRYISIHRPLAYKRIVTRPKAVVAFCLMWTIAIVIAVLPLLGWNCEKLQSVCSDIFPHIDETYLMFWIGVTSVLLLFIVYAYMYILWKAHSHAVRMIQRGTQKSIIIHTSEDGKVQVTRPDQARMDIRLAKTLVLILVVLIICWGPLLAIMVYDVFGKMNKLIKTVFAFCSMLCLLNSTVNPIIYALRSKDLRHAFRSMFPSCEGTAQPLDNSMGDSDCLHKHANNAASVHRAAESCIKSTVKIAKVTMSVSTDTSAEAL
Chain of 5-hydroxytryptamine receptor 2B (P41595 whole entry): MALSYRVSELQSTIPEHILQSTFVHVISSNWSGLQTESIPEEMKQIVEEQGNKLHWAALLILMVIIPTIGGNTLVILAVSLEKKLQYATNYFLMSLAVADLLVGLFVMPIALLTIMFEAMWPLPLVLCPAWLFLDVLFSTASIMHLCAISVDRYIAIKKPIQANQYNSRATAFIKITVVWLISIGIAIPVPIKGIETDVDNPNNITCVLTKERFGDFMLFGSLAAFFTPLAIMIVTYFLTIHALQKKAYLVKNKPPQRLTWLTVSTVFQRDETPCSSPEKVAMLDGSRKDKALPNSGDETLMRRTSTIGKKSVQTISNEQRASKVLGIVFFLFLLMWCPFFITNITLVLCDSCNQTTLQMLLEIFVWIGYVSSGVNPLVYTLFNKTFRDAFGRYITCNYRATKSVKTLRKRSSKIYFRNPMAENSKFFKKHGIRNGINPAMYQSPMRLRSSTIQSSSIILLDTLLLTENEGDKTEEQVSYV
Chain of Histamine H1 receptor (P35367 whole entry): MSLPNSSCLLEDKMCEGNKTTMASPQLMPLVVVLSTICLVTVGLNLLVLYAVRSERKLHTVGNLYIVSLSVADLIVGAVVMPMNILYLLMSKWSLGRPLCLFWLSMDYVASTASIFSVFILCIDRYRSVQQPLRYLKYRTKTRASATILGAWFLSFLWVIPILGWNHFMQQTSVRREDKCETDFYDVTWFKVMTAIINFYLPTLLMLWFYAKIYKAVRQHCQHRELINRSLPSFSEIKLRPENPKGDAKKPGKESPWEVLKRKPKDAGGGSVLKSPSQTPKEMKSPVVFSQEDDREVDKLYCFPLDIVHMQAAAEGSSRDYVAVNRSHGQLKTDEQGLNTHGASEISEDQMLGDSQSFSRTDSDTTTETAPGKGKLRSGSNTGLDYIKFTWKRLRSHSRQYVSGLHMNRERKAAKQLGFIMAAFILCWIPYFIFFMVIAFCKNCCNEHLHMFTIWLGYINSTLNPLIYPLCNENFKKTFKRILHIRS
Chain of Kappa-type opioid receptor (P41145 whole entry): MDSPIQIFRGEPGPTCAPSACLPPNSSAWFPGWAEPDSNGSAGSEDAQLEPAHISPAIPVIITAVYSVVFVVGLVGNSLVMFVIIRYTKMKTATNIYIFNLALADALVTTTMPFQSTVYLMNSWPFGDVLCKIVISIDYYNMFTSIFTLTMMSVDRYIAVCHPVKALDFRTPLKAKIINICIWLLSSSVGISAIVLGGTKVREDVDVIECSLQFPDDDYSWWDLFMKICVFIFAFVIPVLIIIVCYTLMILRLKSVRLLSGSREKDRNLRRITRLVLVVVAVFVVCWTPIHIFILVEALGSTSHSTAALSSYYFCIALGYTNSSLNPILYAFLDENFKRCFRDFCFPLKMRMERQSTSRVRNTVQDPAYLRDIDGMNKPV
Chain of Melanocortin receptor 3 (P41968 whole entry): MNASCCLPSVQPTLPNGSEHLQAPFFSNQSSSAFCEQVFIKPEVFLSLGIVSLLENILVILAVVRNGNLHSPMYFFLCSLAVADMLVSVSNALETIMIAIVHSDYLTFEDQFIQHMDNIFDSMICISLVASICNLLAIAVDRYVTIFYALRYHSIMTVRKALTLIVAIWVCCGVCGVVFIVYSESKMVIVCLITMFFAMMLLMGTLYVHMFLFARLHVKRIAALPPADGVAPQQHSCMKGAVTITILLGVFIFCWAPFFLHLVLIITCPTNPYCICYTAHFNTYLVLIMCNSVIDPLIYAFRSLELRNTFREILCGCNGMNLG
Chain of Neuronal acetylcholine receptor subunit alpha-4 (P43681 whole entry): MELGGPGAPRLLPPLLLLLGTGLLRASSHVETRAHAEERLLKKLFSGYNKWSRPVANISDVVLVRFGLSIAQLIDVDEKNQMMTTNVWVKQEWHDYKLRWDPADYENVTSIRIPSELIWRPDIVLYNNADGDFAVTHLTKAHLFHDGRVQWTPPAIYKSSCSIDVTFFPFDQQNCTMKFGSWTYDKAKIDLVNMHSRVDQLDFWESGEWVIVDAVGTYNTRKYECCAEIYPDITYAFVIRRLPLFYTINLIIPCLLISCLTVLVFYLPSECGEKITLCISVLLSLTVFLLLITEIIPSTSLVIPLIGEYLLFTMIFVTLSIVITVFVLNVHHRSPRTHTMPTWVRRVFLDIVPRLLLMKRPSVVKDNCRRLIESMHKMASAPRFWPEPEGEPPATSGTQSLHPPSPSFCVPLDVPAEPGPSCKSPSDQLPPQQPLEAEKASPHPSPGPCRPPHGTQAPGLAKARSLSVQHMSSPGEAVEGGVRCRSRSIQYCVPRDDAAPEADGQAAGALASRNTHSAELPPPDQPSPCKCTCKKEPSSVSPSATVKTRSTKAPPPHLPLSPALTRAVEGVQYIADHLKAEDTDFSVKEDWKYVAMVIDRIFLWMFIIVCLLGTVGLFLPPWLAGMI
Chain of Motilin receptor (O43193 whole entry): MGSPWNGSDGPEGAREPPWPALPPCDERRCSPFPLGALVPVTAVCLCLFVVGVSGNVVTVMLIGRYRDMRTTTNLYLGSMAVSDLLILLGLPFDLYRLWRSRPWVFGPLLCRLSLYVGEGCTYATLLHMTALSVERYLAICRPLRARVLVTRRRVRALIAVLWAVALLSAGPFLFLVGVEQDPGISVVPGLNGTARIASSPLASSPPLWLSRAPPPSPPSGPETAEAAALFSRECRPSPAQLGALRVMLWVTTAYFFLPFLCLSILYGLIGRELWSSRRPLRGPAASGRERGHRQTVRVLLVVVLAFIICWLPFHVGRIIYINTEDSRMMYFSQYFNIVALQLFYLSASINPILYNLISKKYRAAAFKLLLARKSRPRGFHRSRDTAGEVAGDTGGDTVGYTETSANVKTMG

Row | Compound | AC50 [1] [µM] | AC50 [2] [µM] | AC50 [3] [µM] | AC50 [4] [µM] | AC50 [5] [µM] | AC50 [6] [µM] | AC50 [7] [µM] | AC50 [8] [µM] | AC50 [9] [µM] | AC50 [10] [µM]
1 | Nc1nc2c(c(=O)[nH]1)N(C=O)C(CNc1ccc(C(=O)N[C@@H](CCC(=O)O)C(=O)O)cc1)CN2 (stereo not given in full) [LEUCOVORIN] | > 30 | > 30 | > 30 | > 30 | > 30 | > 30 | > 30 | > 30 |  | 
2 | CC(C)OC(=O)C(C(=O)OC(C)C)=C1SC=CS1 [MALOTILATE] | > 30 | > 30 | > 30 | > 30 | > 30 | > 30 | > 30 | > 30 | > 30 | > 30
3 | O=C1Nc2ccc(Cl)cc2C(c2ccccc2)=NC1O (stereo not given) [OXAZEPAM] | > 10 | > 30 | > 10 | > 30 | > 30 | > 10 | > 10 |  | > 10 | > 10
4 | CC[N+]1(C)CCCC(OC(=O)C(O)(c2ccccc2)c2ccccc2)C1 (stereo not given) [PIPENZOLATE] | > 30 | > 30 | > 30 | > 30 | > 30 | > 30 | > 30 | > 30 | > 30 | 27
5 | C[n+]1ccccc1/C=N/O [PRALIDOXIME] |  | > 30 | > 30 | > 30 |  |  | > 30 |  |  | 
6 | CN1CCN(c2c(F)cc3c(=O)c(C(=O)O)cn4c3c2SCC4)CC1 [RUFLOXACIN] | > 30 | > 30 |  | > 30 | > 30 | > 30 | > 30 | > 30 | 9.8 | > 30
7 | CC(C)CC(N(C)C)C1(c2ccc(Cl)cc2)CCC1 (stereo not given) [SIBUTRAMINE] | > 10 | > 30 |  | > 30 | > 30 | > 10 |  |  |  | 
8 | CC(C)(C)NC[C@H](O)COc1nsnc1N1CCOCC1 [TIMOLOL] | > 30 | > 30 | > 30 | > 30 | > 30 | > 30 | > 30 | > 30 |  | 
9 | COc1cc2nccc(Oc3ccc(NC(=O)Nc4cc(C)on4)c(Cl)c3)c2cc1OC [TIVOZANIB] | > 3 |  |  |  | > 3 |  |  | > 3 |  | > 30
10 | CN1[C@@H]2CC[C@H]1C[C@@H](OC(=O)c1c[nH]c3ccccc13)C2 [TROPISETRON] | 5.2 | > 30 | 15 | > 30 | > 30 | > 30 | > 30 |  |  | 
11 | COc1ccc(C(CN(C)C)C2(O)CCCCC2)cc1 (stereo not given) [VENLAFAXINE] | > 10 |  |  | > 30 | > 30 | > 10 | > 10 |  |  | 
12 | COLISTIN |  | > 30 | > 30 | > 30 |  |  | > 30 |  | > 30 | > 30
